From paper PMC5290737, “Surface mediated cooperative interactions of drugs enhance mechanical forces for antibiotic action” (Scientific Reports, 2017)
Values after ≈ are worked out from the molar mass of the structure shown. Like-named read-outs stand apart in the source and are kept apart here.

What was measured:
[1] = tested on: vancomycin-resistant receptor (VRR); assay: Cantilever surface stress assay, antibiotic binding to surface-bound VRR; details: for mechanical response (in words): 3 μM drug against VRR; for compressive surface stress: 10 μM antibiotic against VRR; for Kd: fit of equation (2); for maximum stress data, Mean: 4 chips, one-way ANOVA table S4
Text: (§1) To probe different pathways of signal-transduction central to the efficacy of recognition mechanisms and therapeutic agents, we used cantilever force-based technology. Because of its nanometre strain sensitivity, this technology can directly measure the smallest changes in mechanical strain caused by specific antibiotic binding. The principles of force transduction and measurements are well established[18][19][20] and many studies focused on cantilever sensors have been published. Unlike conventional methods such as 1H–NMR spectroscopy, enzyme-linked immunosorbent assays (ELISA)[29] or surface plasmon resonance (SPR)[30] which measure optical signatures of chemical binding, cantilever technology has the capacity to resolve forces at the level of individual hydrogen bonds, making it uniquely suited to provide important insight into force transduction mechanisms, such as cell wall strain in response to antibiotic binding. Moreover, in contrast to direct current or low-frequency signals, which cannot probe beyond electrical double layers formed by screening salts, mechanical signaling is sensitive to ligands even when they are located at distance of ~1 nm or more from the sensor surface (Fig. 1d). Measurements were performed using cantilevers functionalized with self-assembled monolayers (SAM) of VSR, VRR or reference polyethylene glycol (PEG) (see methods & materials, Supplementary Information). The specificity of mechanical signaling was achieved by performing measurements in differential mode, where the bending response of the reference PEG-coated cantilevers, (known to reduce nonspecific drug adsorption[8][14][34]) was subtracted from VSR- and VRR-coated cantilever signals (see cantilever measurement procedure, method section).
(§2) Thus far, we have discussed the impact of near-membrane layer on the association kinetics, mechanical force transduction, specificity of molecular recognition and microbial susceptibility. To gain mechanistic insight (Fig. 7a,b), we averaged measurements for each drug-target interaction over four separate chips and the results are summarized in Fig. 7c,d. […] The mechanical signaling response follows an s-shaped curve undergoing its steepest rise at N ~1/Ksurf before reaching a plateau when the binding sites are fully occupied (Fig. 7c,d). To calculate Ksurf, we used equation (2)[14], based on the conventional Hill adsorption model.
(§3) Here, Ksurf is raised to the power n to ensure that it maintains the dimension of concentration as n varies. Setting n = 1 yields the Langmuir isotherm where the reactions occur independently, while n > 1 corresponds to positive co-operative polyvalent interactions and n < 1 is a measure of negative co-operativity. In Fig. 7c,d, we find that the mechanical response at VSR levels off at 50 μM concentration for all antibiotics. In contrast, for the drug-resistant VRR a concentration of more than 1000 μM of Van, Rist or CE was required to reach indistinguishable maximum signals. The outcome of the fit using three parameters (n, Ksurf and σmax) is summarized in Supplementary Fig. 2. The calculated Ksurf for Ori binding to VSR is 40 ± 10 nM, which is 25 times stronger than for Van where Ksurf is 1.0 ± 0.3 μM. The Ksurf of Ori against VRR is 70 ± 10 nM, an astonishing 11,000 times stronger than for Van where Ksurf is 800 ± 300 μM. As a further measurement control and to confirm the accuracy of surface binding affinity, we used a commercially available SPR method (Fig. 7e,f and Supplementary SPR sensor chip functionalization procedure), where the detection of ligands is at a single planar metal surface.
(§4) The modified cantilever chip was mounted in a sealed liquid cell. The alignment of each light source onto the free end of each cantilever was confirmed by heating liquid chamber to 1 °C rise. […]

[2] = tested on: vancomycin resistant E. faecalis (VRE); details: absence of polysorbate-80; ref. 2 (Van), ref. 5 (Rist, CE), ref. 9 (Ori), supplementary references; cited from earlier work
[3] = molecular target: VRR in solution; details: ref. 1 (Van), ref. 6 (Rist), ref. 8 (CE), ref. 2 (Ori), supplementary references, read-out: Ksurf Solution; cited from earlier work
[4] = tested on: vancomycin-susceptible receptor (VSR); assay: Cantilever surface stress assay, antibiotic binding to surface-bound VSR; details: for mechanical response (in words): 3 μM drug against VSR; for Kd: VSR on cantilever, fit of equation (2); for maximum stress data, Mean / Mean difference of stress, VSR versus VRR: 4 chips; for maximum stress data, Mean: one-way ANOVA table S5; for mechanical force (F = kΔz): against VSR on the cantilever, Fig. 6b (10 μM); for Mean difference of stress, VSR versus VRR: independent samples t-test, table S6; for mechanical response, free end deflection: Van 1000 μM against VSR
Text: as §1, §2, §3, §4

[5] = tested on: vancomycin susceptible E. faecalis (VSE); details: absence of polysorbate-80; ref. 9 (Van, CE, Ori), ref. 10 (Rist), supplementary references; cited from earlier work
[6] = tested on: methicillin-resistant Staphylococcus aureus (MRSA); details: absence of polysorbate-80; supplementary references; cited from earlier work
[7] = molecular target: vancomycin-susceptible receptor (VSR); assay: Surface plasmon resonance (SPR) binding to VSR; details: T100 BIAcore, fit of equation (2), read-out: Ksurf SPR
Method: The SPR sensor chip functionalization procedure is summarized (see methods & materials Supplementary Information) while the measurement protocol has been described previously. In brief we used a T100 BIAcore SPR instrument in which a series of binding analyses for Van was performed. […] The corresponding SPR response signals featured an S-shaped curve, with a steep rise, then a plateau when Van concentration was increased beyond 50 μM (Fig. 7e,f). The resulting SPR differential response signals in sodium phosphate buffer solution for 0.1 μM, 0.5 μM, 2 μM, 8 μM and 128 μM were then computed using equation (2) to calculate the surface thermodynamic equilibrium dissociation constant, Ksurf of drug-target interactions.
Surface plasmon resonance (SPR) sensor chip functionalization procedure. We applied the same cantilever functionalization procedure to the SPR sensor chip functionalization. […]
The differential stress measurements obtained from cantilever chips are typically associated with multiple parameters including number of repeated measurements, concentration and the number of cantilevers where each array has eight individual cantilevers. The statistical analysis was found to be essential for replacing a vast quantity of data with numbers such as the averages and standard deviations. […]

[8] = molecular target: vancomycin-resistant receptor (VRR); details: ref. 3 (Van), ref. 5 (Rist), ref. 4 (CE), supplementary references, read-out: Ksurf SPR; cited from earlier work
[9] = VRR on cantilever, pH 7.4 sodium phosphate buffer, read-out: Ksurf Cantilever (surface equilibrium dissociation constant)
[10] = pH 7.4 sodium phosphate buffer, read-out: Ksurf Cantilever (surface equilibrium dissociation constant)

SMILES	mechanical response (in words) [1]	compressive surface stress [1]	Kd [1, 9] [µM]	maximum stress data, Mean ([1]; VRR)	MIC VRE [2] [µg/mL]	Kd [3] [µM]	mechanical response (in words) [4]	Kd [4, 10] [µM]	maximum stress data, Mean ([4]; VSR)	mechanical force (F = kΔz) [4]	Mean difference of stress, VSR versus VRR [4]	MIC VSE [5] [µg/mL]	MIC MRSA [6] [µg/mL]	further results
CN[C@H](CC(C)C)C(=O)N[C@H]1C(=O)N[C@@H](CC(N)=O)C(=O)N[C@H]2C(=O)N[C@H]3C(=O)N[C@H](C(=O)N[C@H](C(=O)O)c4cc(O)cc(O)c4-c4cc3ccc4O)[C@H](O[C@H]3C[C@](C)(N)[C@@H](O)[C@H](C)O3)c3ccc(c(Cl)c3)Oc3cc2cc(c3O[C@@H]2O[C@H](CO)[C@@H](O)[C@H](O)[C@H]2O[C@H]2C[C@](C)(NCc3ccc(-c4ccc(Cl)cc4)cc3)[C@@H](O)[C@H](C)O2)Oc2ccc(cc2Cl)[C@H]1O [Ori, oritavancin]	significantly large mechanical response	~ 23 mNm^−1	0.07 ± 0.01	20.6	0.25 to 2	4200	significantly large mechanical response	0.04 ± 0.01	33.8	~ 3.6 nN	13.2	0.25 to 2	0.13 to 1.01	Kd ([1]; VRR (drug-resistant target) on cantilever, read-out: Ksurf (cantilever)): 0.07 µM; Ksurf of Ori against VRR, times stronger than for Van ([1]; ratio of cantilever Ksurf, VRR): 11,000 times; deleterious force sensitivity s = σeq/n ([1]; σeq = 23 mNm^−1, n ~10^11 receptor molecules per cantilever): ~ 20 fNm^−1; Kd ([4]; read-out: Ksurf (cantilever)): 0.04 ± 0.01 µM; Ksurf of Ori against VSR, times stronger than for Van ([4]; ratio of cantilever Ksurf, VSR): 25 times
CN[C@H](CC(C)C)C(=O)N[C@H]1C(=O)N[C@@H](CC(N)=O)C(=O)N[C@H]2C(=O)N[C@H]3C(=O)N[C@H](C(=O)N[C@H](C(=O)O)c4cc(O)cc(O)c4-c4cc3ccc4O)[C@H](O)c3ccc(c(Cl)c3)Oc3cc2cc(c3O[C@@H]2O[C@H](CO)[C@@H](O)[C@H](O)[C@H]2O[C@H]2C[C@](C)(N)[C@H](O)[C@H](C)O2)Oc2ccc(cc2Cl)[C@H]1O [Van, vancomycin]	no effect	~ 0.4 mNm^−1	800	7.4	512 (≈ 353 µM)	2400	reduced overall stress transduction	1 ± 0.3	33.5	~ 3 nN	26.1	0.5 to 4	0.5 to 4	concentration required to reach indistinguishable maximum signals ([1]; VRR): more than 1000 μM; Kd [7]: 1.1 ± 0.4 µM; mechanical response, free end deflection ([4]; near-membrane layer thickness ~1 nm): ~ 220 nm; mechanical response, free end deflection ([4]; near-membrane layer thickness ~50 nm): ~ 150 nm; Kd [8]: 526 µM
